Converted amounts (≈) assume the structure as drawn.
Experiments:
[1] = target: T1, glucocerebrosidase (Gcase) (Homo sapiens, UniProt P04062); assay: Glucocerebrosidase (Gcase) activation assay, 4-methylumbelliferyl-beta-D-glucopyranoside substrate, with saposin C; format: biochemical; conditions: 10 nM GCase, 100 nM saposin C, pH 4.7; for activation at 0.1 µM: read-out: Percent Gcase Activation, 0.1 μM Test Compound; for activation at 1 µM: 0.25 h, read-out: Percent Gcase Activation, 1 μM Test Compound
T1 construct: 100 μL of micellar solution containing 10 nM GCase and 100 nM saposin C (Enzo ALX-201-262-C050)
T1 sequence (P04062 40-536): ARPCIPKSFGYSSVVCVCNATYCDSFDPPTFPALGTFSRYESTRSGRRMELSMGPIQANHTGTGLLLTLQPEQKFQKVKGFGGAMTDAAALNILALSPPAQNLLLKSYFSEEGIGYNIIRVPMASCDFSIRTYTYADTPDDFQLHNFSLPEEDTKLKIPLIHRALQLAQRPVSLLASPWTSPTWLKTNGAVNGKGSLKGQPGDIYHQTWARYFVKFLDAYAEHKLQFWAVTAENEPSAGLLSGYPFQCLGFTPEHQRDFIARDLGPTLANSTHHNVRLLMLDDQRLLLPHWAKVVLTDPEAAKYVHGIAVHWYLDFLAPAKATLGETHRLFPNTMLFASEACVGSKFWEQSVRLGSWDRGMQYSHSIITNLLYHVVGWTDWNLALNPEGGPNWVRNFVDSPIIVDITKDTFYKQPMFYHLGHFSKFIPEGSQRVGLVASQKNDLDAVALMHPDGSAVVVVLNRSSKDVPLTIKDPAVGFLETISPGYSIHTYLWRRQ
Procedure: A 484 μL aliquot of a 1.0 mg/mL solution of phosphatidylserine (PS) (Sigma P7769) in chloroform was evaporated under a stream of nitrogen for 1 hour. The lipid film was dissolved over 4 minutes of vigorous vortexing in 40 mL of 176 mM K2HPO4/50 mM citric acid (pH 4.7) containing 7.5 μL of triton X-100, resulting in a mixed micellar preparation with a composition of 0.32 mM triton and 0.37 mol % PS. 4-Methylumbelliferyl-beta-D-glucopyranoside (ACROS-337025000) was dissolved in the micellar solution to a final concentration of 2 mM for use as the reaction substrate.
Test compounds were diluted to the desired concentrations with dimethylsulfoxide (DMSO) from 10 mM stocks, and 0.41 μL of the DMSO compound mixture was added to 100 μL of micellar solution containing 10 nM GCase and 100 nM saposin C (Enzo ALX-201-262-C050). Pre-incubation was allowed to occur for 30 minutes at room temperature, after which the reaction was initiated by combining 25 μL of substrate solution with 25 μL of compound/GCase/saposin mixture. The reaction proceeded for 15 minutes at room temperature and was stopped by adding 150 μL of 1M glycine, pH 12.5. The endpoint of the reaction was monitored by measuring fluorescence intensity (excitation: 365 nm; emission: 440 nm) on a SpectraMax i3 instrument (Molecular Devices). Test compounds were screened at 1.0 and 0.1 μM final concentration, and subsequent 8-point dose response curves were obtained using 3-fold dilutions from a maximum final concentration of 5 μM.

[2] = Compound solubility in water

activation at 0.1 µM ([1]; 0.1 μM test compound)	activation at 1 µM ([1]; 1 μM test compound)	solubility [2]	Percent Gcase Activation, 0.1 μM Test Compound ([1]; 0.1 μM test compound)	Percent Gcase Activation, 1 μM Test Compound ([1]; 1 μM test compound)	Molecule
< 5%	5 to 10%	–	–	–	CCc1ccc(NC(=O)c2cnc3occn3c2=O)cc1
< 5%	> 10%	0.3 µg/mL (≈ 0.964 µM)	–	–	CCC(C)c1ccc(NC(=O)c2cnc3occn3c2=O)cc1 (stereo not shown)
< 5%	> 10%	0.5 µg/mL (≈ 1.54 µM)	–	–	CCC(C)c1ccc(NC(=O)c2cnc3n(C)ccn3c2=O)cc1 (stereo not shown)
< 5%	5 to 10%	1.4 µg/mL (≈ 4.51 µM)	–	–	CCC(C)c1ccc(NC(=O)c2cnc3[nH]ccn3c2=O)cc1 (stereo not shown)
< 5%	5 to 10%	25.1 µg/mL (≈ 85 µM)	–	–	O=C(NC1CCc2ccccc21)c1cnc2occn2c1=O (stereo not shown)
< 5%	< 5%	5.5 µg/mL (≈ 17.6 µM)	–	–	O=C(Nc1ccc2c(c1)OCCO2)c1cnc2occn2c1=O
< 5%	< 5%	40.2 µg/mL (≈ 109 µM)	–	–	CCN1CCN(c2ccc(NC(=O)c3cnc4occn4c3=O)cc2)CC1
< 5%	< 5%	2.2 µg/mL (≈ 6.5 µM)	–	–	O=C(Nc1ccc(N2CCCCC2)cc1)c1cnc2occn2c1=O
< 5%	< 5%	25.6 µg/mL (≈ 90.4 µM)	–	–	C[C@@H](NC(=O)c1cnc2occn2c1=O)c1ccccc1
< 5%	> 10%	58 µg/mL (≈ 172 µM)	–	–	O=C(NC1CCC(c2ccccc2)CC1)c1cnc2occn2c1=O (stereo not shown)
< 5%	5 to 10%	16.6 µg/mL (≈ 53.5 µM)	–	–	CN1Cc2ccc(NC(=O)c3cnc4occn4c3=O)cc2C1
5 to 10%	< 5%	22.6 µg/mL (≈ 73.1 µM)	–	–	O=C(NC1CCc2ccccc2C1)c1cnc2occn2c1=O (stereo not shown)
5 to 10%	5 to 10%	5.5 µg/mL (≈ 19.7 µM)	–	–	C#Cc1ccc(NC(=O)c2cnc3occn3c2=O)cc1
< 5%	> 10%	30.2 µg/mL (≈ 97.6 µM)	–	–	O=C(NC1CCCc2ccccc21)c1cnc2occn2c1=O (stereo not shown)
–	–	–	+ (less than 5% Gcase activation)	+++ (Gcase activation greater than 10%)	N-(4-butylcyclohexyl)-6-oxo-3,4-dihydro-2H,6H-pyrimido[2,1-b][1,3]thiazine-7-carboxamide

From US20190092789A1, “HETEROBICYCLIC PYRIMIDINONE COMPOUNDS AND THEIR USE IN THE TREATMENT OF MEDICAL DISORDERS” (priority 2015, published 2019)
